Measured values published in patent US11542492B2 (Celgene CAR LLC, priority 2009, dated 2023).

How the values were obtained:
[1] = target: T1, HCV NS3/4A 1b protease enzyme (wild type) (Hepatitis C virus genotype 1b, UniProt P26663); experiment: HCV protease FRET assay (IC50_APP), wild type NS3/4A 1b; assay type: biochemical
T1 construct: 10× stocks of NS3/4A protease enzyme from Bioenza (Mountain View, Calif.); purchased Bioenza
Summary of the method: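 Wild-type NS3/4A 1b protease with serially diluted compounds (from 50% DMSO stocks); reaction started at once with FRET substrate and followed 60-90 min at ex485/em520. Initial velocities (0 to 15+ min) normalised to no-inhibitor and no-enzyme controls; apparent IC50 from variable-slope log[inhibitor]-response fit.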

HCV NS3 protease WT 1b = target: T2, HCV NS3 protease WT 1b (Hepatitis C virus genotype 1b, UniProt P26663); experiment: MALDI MS of intact HCV protease 1b WT incubated with compound; assay type: binding; details: WT 1b, 1 HR
T2 construct: The single-chain proteolytic domain (NS4A21-32-GSGS-NS33-631) was cloned into pET-14b; His tag (own knowledge of vector pET-14b); made in house; host or cells: Escherichia coli BL21
Protocol: Intact HCV (protease) 1bWT was incubated for 1 hr at a 10× fold excess of XVI-26 to protein. 3 ul aliquots of the samples were diluted with 10 ul of 0.1% TFA prior to micro C4 ZipTipping directly onto the MALDI target using Sinapinic acid as the desorption matrix (10 mg/mL in 0.1% TFA:Acetonitrile 50:50). […] Due to likely protein misfolding during protein purification, a small portion of the misfolded protein was not modified.
In order to determine whether the modification of the protein occurred at lysine, the pH from the above experiment was increased from 7.4 to 10.0. Because the compound lysine adduct would be an amide any increase in pH would have minimal effect on the modified protein. If however, the modification occurred at cysteine the resultant thioester bond would be unstable and the compound would hydrolyze off the protein.
Intact HCV (protease) 1bWT, C159S, and C159S/K136A were incubated for 1 hr at a 10× fold excess of XVI-26 to protein. 3 μl aliquots of the samples were diluted with 10 μl of 0.1% TFA prior to micro C4 ZipTipping directly onto the MALDI target using Sinapinic acid as the desorption matrix (10 mg/mL in 0.1% TFA:Acetonitrile 50:50).
Intact HCV (protease) WT1b was incubated for 1 hr at a 10× fold excess of XVI-1 (mw=782.87) to protein. 3 μl aliquots of the samples were diluted with 10 μl of 0.1% TFA prior to micro C4 ZipTipping directly onto the MALDI target using Sinapinic acid as the desorption matrix (10 mg/mL in 0.1% TFA:Acetonitrile 50:50). […] Due to some protein misfolding during the purification of the protein, the unfolded portion of the protein can not react with XVI-1.

p110β/p85α (PI3Kβ) = target: T3, p110β/p85α (PI3Kβ) (Homo sapiens, UniProt P42338); experiment: HTRF assay, p110β/p85α; assay type: biochemical; details: read-out: PI3Kβ HTRF IC50 Inhibition Designation
T3 construct: purchased Millipore 14-603
Protocol: The mechanics of the assay platform are best described by the vendor (Millipore, Billerica, Mass.) on their website at the following URL: http://www.millipore.com/coa/tech1/74jt4z.
Briefly, Stop solution (Stop A, #33-007 and Stop B, #33-009; 3:1 ratio) and Detection Mix (DMC, #33-015 with DMA, #33-011 and DMB, #33-013; 18:1:1 ratio) were prepared as recommended by the manufacturer ˜2 hrs prior to use. […] Lipid kinase reactions were started with the addition of 5 μL of ATP solution, mixed for 15 sec on a rotary plate shaker and incubated for 15-30 minutes at 25° C. Next, reactions were stopped with a 5 μL addition of Stop solution followed by a 5 μL volume of Detection Mix. […] At the conclusion of each assay, the HTRF ratio from fluorescence emission values for each well was calculated and % Inhibition determined from averaged controls wells. % Inhibition values for each compound re then plotted against inhibitor concentration to estimate IC50 from log [Inhibitor] vs Response, Variable Slope model in GraphPad Prism from GraphPad Software (San Diego, Calif.).

p120γ (PI3Kγ) = target: T4, p120γ (PI3Kγ) (Homo sapiens, UniProt P48736); experiment: HTRF assay, p120γ; assay type: biochemical; details: PI3Kγ; read-out: PI3Kγ HTRF IC50 Inhibition Designation
T4 construct: purchased BPS Bioscience 40625
Description: The protocol below describes an end-point, competition-binding HTRF assay used to measure inherent potency of test compounds against active p110α/p85α, p110β/p85α, p120γ enzymes. The mechanics of the assay platform are best described by the vendor (Millipore, Billerica, Mass.) on their website at the following URL: http://www.millipore.com/coa/tech1/74jt4z.
Briefly, Stop solution (Stop A, #33-007 and Stop B, #33-009; 3:1 ratio) and Detection Mix (DMC, #33-015 with DMA, #33-011 and DMB, #33-013; 18:1:1 ratio) were prepared as recommended by the manufacturer ˜2 hrs prior to use. Additionally, 1× reaction buffer (4× buffer stock #33-003), a 1.4× stock of enzyme from BPS Bioscience (San Diego, Ca) or Millipore (Billerica, Mass.) with di-C8-PIP2 lipid substrate (#33-005), and a 4×ATP solution (#A7699) Sigma/Aldrich (St. Louis, Mo.) were prepared in 1×reaction buffer. 15 μL of enzyme and lipid substrate mix were pre-incubated in a Corning (#3573) 384-well, black, non-treated microtiter plate (Corning, N.Y.) for 30 min at 25° C. with a 0.5 μL volume of 50% DMSO and serially diluted compounds prepared in 50%-75% DMSO. Lipid kinase reactions were started with the addition of 5 μL of ATP solution, mixed for 15 sec on a rotary plate shaker and incubated for 15-30 minutes at 25° C. Next, reactions were stopped with a 5 μL addition of Stop solution followed by a 5 μL volume of Detection Mix. Stopped reactions were equilibrated for 1 and 18 hrs at room temperature and then read in a Synergy4 plate reader from BioTek (Winooski, Vt.) at λex330-80/λem620-35 and λem665-7.5. At the conclusion of each assay, the HTRF ratio from fluorescence emission values for each well was calculated and % Inhibition determined from averaged controls wells. % Inhibition values for each compound re then plotted against inhibitor concentration to estimate IC50 from log [Inhibitor] vs Response, Variable Slope model in GraphPad Prism from GraphPad Software (San Diego, Calif.).
Reagents Used in Optimized Protocol: • [p120γ]=1-4 nM, [ATP]=50 μM, [di-C8-PIP2]=10 μM • (40625; BPS Bioscience)

Compound	IC50 (p110β/p85α (PI3Kβ)) [nM]	IC50 (p120γ (PI3Kγ)) [nM]	IC50 [1] [nM]	MS_HCVNS3_INTACT_NS3 WT 1b 1 HR (HCV NS3 protease WT 1b)
C=C[C@@H]1C[C@]1(NC(=O)[C@@H]1CC(OC(=O)N2Cc3cccc(F)c3C2)CN1C(=O)[C@H](COC(=O)N[C@@H]1C(=O)O[C@@H]1C)NC(=O)OC(C)(C)C)C(=O)NS(=O)(=O)C1CC1 (stereo partly drawn) [XVI-25, (5S)-1-((S)-2-(tert-butoxycarbonylamino)-3-((2R,3S)-2-methyl-4-oxooxetan-3-ylcarbamoyloxy)propanoyl)-5-((1R,2S)-1-(cyclopropylsulfonylcarbamoyl)-2-vinylcyclopropylcarbamoyl)pyrrolidin-3-yl 4-fluoroisoindoline-2-carboxylate]			< 1	K (≤30% modification)
COc1ncc(-c2ccc3nccc(-c4ccc(C(=O)N5C[C@H]6C[C@@H]5C(=O)O6)cc4)c3c2)cc1NS(=O)(=O)c1ccc(F)cc1F [XXV-15, 2,4-difluoro-N-(2-methoxy-5-(4-(4-((1R,4R)-3-oxo-2-oxa-5-azabicyclo[2.2.1]heptane-5-carbonyl)phenyl)quinolin-6-yl)pyridin-3-yl)benzenesulfonamide]	< 10			
COc1ccc(C(=O)N2C[C@@H]3C[C@H]2C(=O)O3)cc1-n1c(CSc2ncnc3[nH]cnc23)nc2cccc(Cl)c2c1=O [XXXVII-1, (1S,4S)-5-(3-(2-((9H-purin-6-ylthio)methyl)-5-chloro-4-oxoquinazolin-3(4H)-yl)-4-methoxybenzoyl)-2-oxa-5-azabicyclo[2.2.1]heptan-3-one]	100 to 1000			
COc1ccc(NC(=O)N2C[C@@H]3C[C@H]2C(=O)O3)cc1-n1c(CSc2ncnc3[nH]cnc23)nc2cccc(Cl)c2c1=O [XXXVII-4, (1S,4S)-N-(3-(2-((9H-purin-6-ylthio)methyl)-5-chloro-4-oxoquinazolin-3(4H)-yl)-4-methoxyphenyl)-3-oxo-2-oxa-5-azabicyclo[2.2.1]heptane-5-carboxamide]	100 to 1000			
COc1c(OCCCC(=O)N2C[C@@H]3C[C@H]2C(=O)O3)ccc2c1N=C(NC(=O)c1cccnc1)N1CCN=C21 [XXVII-14, N-(7-methoxy-8-(4-oxo-4-((1S,4S)-3-oxo-2-oxa-5-azabicyclo[2.2.1]heptan-5-yl)butoxy)-2,3-dihydroimidazo[1,2-c]quinazolin-5-yl)nicotinamide]	100 to 1000			
COc1ccc(NC(=O)[C@H]2CCC(=O)O2)cc1-n1c(CSc2ncnc3[nH]cnc23)nc2cccc(Cl)c2c1=O [XXXVII-2, (R)-N-(3-(2-((9H-purin-6-ylthio)methyl)-5-chloro-4-oxoquinazolin-3(4H)-yl)-4-methoxyphenyl)-5-oxotetrahydrofuran-2-carboxamide]	100 to 1000			

Further lines, with some results ahead:

IC50 (p110β/p85α (PI3Kβ)) [nM]	IC50 (p120γ (PI3Kγ)) [nM]	Compound	IC50 [1] [nM]	MS_HCVNS3_INTACT_NS3 WT 1b 1 HR (HCV NS3 protease WT 1b)
100 to 1000	100 to 1000	O=C1CC[C@H](C(=O)N2CCN(Cc3cc4nc(-c5cccc6[nH]ncc56)nc(N5CCOCC5)c4s3)CC2)O1 [XXII-22]		
100 to 1000	100 to 1000	COC(=O)N1C(=O)CC[C@H]1C(=O)N1CCN(Cc2cc3nc(-c4cnc(N)nc4)nc(N4CCOCC4)c3s2)CC1 [XXII-29, (S)-methyl 2-(4-((2-(2-aminopyrimidin-5-yl)-4-morpholinothieno[3,2-d]pyrimidin-6-yl)methyl)piperazine-1-carbonyl)-5-oxopyrrolidine-1-carboxylate]		
100 to 1000	100 to 1000	COC(=O)N1C(=O)CC[C@@H]1C(=O)N1CCN(Cc2cc3nc(-c4cnc(N)nc4)nc(N4CCOCC4)c3s2)CC1 [XXII-28]		
1000 to 10000	100 to 1000	O=C1CC[C@@H](C(=O)N2CCN(Cc3cc4nc(-c5cccc6[nH]ncc56)nc(N5CCOCC5)c4s3)CC2)O1 [XXII-23]		
100 to 1000	100 to 1000	Nc1ncc(-c2nc(N3CCOCC3)c3sc(CN4CCN(C(=O)C5CSC(=O)C5)CC4)cc3n2)cn1 (stereo not shown) [XXII-31, 4-(4-((2-(2-aminopyrimidin-5-yl)-4-morpholinothieno[3,2-d]pyrimidin-6-yl)methyl)piperazine-1-carbonyl)dihydrothiophen-2(3H)-one]		
100 to 1000	100 to 1000	CC(C)Oc1c(N2CCN(Cc3cc4nc(-c5cnc(N)nc5)nc(N5CCOCC5)c4s3)CC2)c(=O)c1=O [XXII-26, 3-(4-((2-(2-aminopyrimidin-5-yl)-4-morpholinothieno[3,2-d]pyrimidin-6-yl)methyl)piperazin-1-yl)-4-isopropoxycyclobut-3-ene-1,2-dione]		
100 to 1000	10 to 100	C/C=C/S(=O)(=O)N1CCN(Cc2cc3nc(-c4cnc(N)nc4)nc(N4CCOCC4)c3s2)CC1 [XXII-25, (E)-5-(4-morpholino-6-((4-(prop-1-enylsulfonyl)piperazin-1-yl)methyl)thieno[3,2-d]pyrimidin-2-yl)pyrimidin-2-amine]		
100 to 1000	10 to 100	Nc1ncc(-c2nc(N3CCOCC3)c3sc(CN4CCN(C(=O)C5CCSC5=O)CC4)cc3n2)cn1 (stereo not shown) [XXII-30, 3-(4-((2-(2-aminopyrimidin-5-yl)-4-morpholinothieno[3,2-d]pyrimidin-6-yl)methyl)piperazine-1-carbonyl)dihydrothiophen-2(3H)-one]		
100 to 1000	100 to 1000	Nc1ncc(-c2nc(N3CCOCC3)c3sc(CN4CCN(C(=O)C5CCC(=O)S5)CC4)cc3n2)cn1 (stereo not shown) [XXII-32, 5-(4-((2-(2-aminopyrimidin-5-yl)-4-morpholinothieno[3,2-d]pyrimidin-6-yl)methyl)piperazine-1-carbonyl)dihydrothiophen-2(3H)-one]		
100 to 1000	100 to 1000	CC(C)Oc1c(NCC(=O)N2CCN(Cc3cc4nc(-c5cnc(N)nc5)nc(N5CCOCC5)c4s3)CC2)c(=O)c1=O [XXII-27, 3-(2-(4-((2-(2-aminopyrimidin-5-yl)-4-morpholinothieno[3,2-d]pyrimidin-6-yl)methyl)piperazin-1-yl)-2-oxoethylamino)-4-isopropoxycyclobut-3-ene-1,2-dione]		
100 to 1000		CN(Cc1cc2nc(-c3cccc(O)c3)nc(N3CCOCC3)c2s1)C(=O)CCC(=O)N1CCC1=O [XXII-24, N-((2-(3-hydroxyphenyl)-4-morpholinothieno[3,2-d]pyrimidin-6-yl)methyl)-N-methyl-4-oxo-4-(2-oxoazetidin-1-yl)butanamide]		
